We go through 19 molecules from patent US12454530B2, “Amido cyclohexane acid derivatives as LPA receptor inhibitors” (CHIESI FARMACEUTICI S.P.A., priority 2020, dated 2025).

Read-outs that look alike come from different tables or passages of the source. Where only a bound is given, the exact number is not on record here.

One data set concerns the target BSEP (Homo sapiens (Human), UniProt O95342). As to the kind of experiment: BSEP inhibition: biliary clearance of Taurocolic Acid in sandwich-cultured human hepatocytes. It counts as in vitro ADME. Conditions: 50 μM test compound, 10 μM TCA, human hepatocytes sandwich configuration; for inhibition at 10 min, 50 μM: sandwich-cultured cryopreserved human hepatocytes, probe Taurocolic Acid (TCA). The method, then:
BSEP inhibition was evaluated using human hepatocytes cultured between two layer of collagen (sandwich configuration). In this culture condition, hepatocytes express relevant transporters including BSEP and retain the bile canalicular structure. An inhibition of the biliary clearance of Taurocolic Acid (TCA), a known BSEP substrate, was used to assess BSEP interaction.
BSEP inhibition was evaluated using cryopreserved human hepatocytes (Plateable Cryopreserved Human Hepatocytes, BIOIVT) cultured for 5 day between two layer of collagen (sandwich configuration). In this culture condition, hepatocytes express relevant transporters including BSEP and retain the bile canalicular structure.
On day 5 of culture, hepatic cells are ready for the assay and the biliary clearance of Taurocolic Acid (TCA), a known BSEP substrate, can be estimated in presence and in absence of compound of interest.
The sample solution was prepared dissolving test compound and TCA in DMSO and then diluted in the Assay Buffer: Hank's Balance Salt Solution (HBSS+) warmed at 37° C. before use, to give the 10 μM TCA working solution with and without 50 μM of test compound. Hepatocytes were incubated for 10 minutes with these working solutions allowing TCA to be excreted into bile. At the end of incubation, the working solution was aspirated, and the content of the bile was collected through the addition of HBSS Modified without Ca2+/Mg2+(HBSS−). The presence of Ca2+ in the buffer is required to maintain the integrity of the tight junctions, the diffusional barrier between the canalicular lumen and extracellular space. Instead, incubation of cells in Ca2+-free buffer disrupts the tight junctions and opens the bile canalicular structures, allowing the bile content to be released and collect for HPLC-MS/MS analysis.
The in vitro biliary clearance of TCA incubated with and without test compounds is calculated according to the following formula:
where • Acc. Bile=(TCA amount in HBSS (−) buffer samples (pmol/mg protein)*Volume of each samples (mL))/Protein content per well (mg) • AUC=Incubation time (min)*T0 Concentration. T0 concentration is the initial TCA concentration in the medium.
The inhibition of BSEP was calculated as percentage of inhibition of TCA biliary clearance in presence of compound of interest, according to the following formula: BSEP inhibition %=100−(TCA ClBil with test compound*100)
TCA ClBil without test compound.

For data set [1], the target named is human recombinant LPA1 expressed in CHO cells (Homo sapiens (Human), UniProt Q92633). As to the kind of experiment: LPA1 antagonist FLIPR calcium assay in CHO-hLPA1 cells. It counts as cell-based. The method, then:
The effectiveness of compounds of the present invention as LPA1 antagonists can be determined at the human recombinant LPA1 expressed in CHO cells, using a FLIPR assay in 384 well format.
CHO-hLPA1 cell lines are cultured in a humidified incubator at 5% CO2 in DMEM/F-12 (1:1) MIXTURE with 2 mM Glutamax, supplemented with 10% of Foetal Bovine Serum, 1 mM Sodium Pyruvate, 11 mM Hepes and 1× Penicillin/Streptomycin. […] Serial dilutions (1:3 or 1:4, 11 points CRC) of compounds are performed in 100% DMSO at 200× the final concentration. […] The final concentration of DMSO in the assay will be 0.5% in each well. Medium is removed by aspiration and cells are then incubated with 30 μl of a loading solution containing 5 μM of the cytoplasmic Ca2+ indicator Cal-520 AM in Assay Buffer containing 2.5 mM probenecid for 30 min at 37° C. incubator (cell loading). The loaded cell plates are transferred into the FLIPR instrument and calcium responses are monitored during the on-line addition protocols. For testing of compounds, after the cell loading, 10 μl/well of 4× antagonists' solution was added onto the cells. After 30 min pre-incubation (at 37° C.), 10 μl/well of 5× concentrated LPA EC80 was added and Ca2+ mobilization responses was followed during the on-line addition protocol. Intracellular peak fluorescence values subtracted by baseline fluorescence are exported and analysed to determine IC50 values, respectively. The calcium response is expressed as percentage of the maximal inhibition of the EC80 agonist response.
The raw data (peak height expressed as relative fluorescence units) are normalized and transformed into “percent of inhibition”. Curve fitting and pIC50 (−LogIC50) estimations are carried out using a four-parameter logistic model using XLfit Software.

The mark [2] stands for this setting: range of activity, CHO-hLPA1, LPA EC80, Ca2+ mobilization, read-out: LPA1 IC50.

Sequence of BSEP (O95342 whole entry): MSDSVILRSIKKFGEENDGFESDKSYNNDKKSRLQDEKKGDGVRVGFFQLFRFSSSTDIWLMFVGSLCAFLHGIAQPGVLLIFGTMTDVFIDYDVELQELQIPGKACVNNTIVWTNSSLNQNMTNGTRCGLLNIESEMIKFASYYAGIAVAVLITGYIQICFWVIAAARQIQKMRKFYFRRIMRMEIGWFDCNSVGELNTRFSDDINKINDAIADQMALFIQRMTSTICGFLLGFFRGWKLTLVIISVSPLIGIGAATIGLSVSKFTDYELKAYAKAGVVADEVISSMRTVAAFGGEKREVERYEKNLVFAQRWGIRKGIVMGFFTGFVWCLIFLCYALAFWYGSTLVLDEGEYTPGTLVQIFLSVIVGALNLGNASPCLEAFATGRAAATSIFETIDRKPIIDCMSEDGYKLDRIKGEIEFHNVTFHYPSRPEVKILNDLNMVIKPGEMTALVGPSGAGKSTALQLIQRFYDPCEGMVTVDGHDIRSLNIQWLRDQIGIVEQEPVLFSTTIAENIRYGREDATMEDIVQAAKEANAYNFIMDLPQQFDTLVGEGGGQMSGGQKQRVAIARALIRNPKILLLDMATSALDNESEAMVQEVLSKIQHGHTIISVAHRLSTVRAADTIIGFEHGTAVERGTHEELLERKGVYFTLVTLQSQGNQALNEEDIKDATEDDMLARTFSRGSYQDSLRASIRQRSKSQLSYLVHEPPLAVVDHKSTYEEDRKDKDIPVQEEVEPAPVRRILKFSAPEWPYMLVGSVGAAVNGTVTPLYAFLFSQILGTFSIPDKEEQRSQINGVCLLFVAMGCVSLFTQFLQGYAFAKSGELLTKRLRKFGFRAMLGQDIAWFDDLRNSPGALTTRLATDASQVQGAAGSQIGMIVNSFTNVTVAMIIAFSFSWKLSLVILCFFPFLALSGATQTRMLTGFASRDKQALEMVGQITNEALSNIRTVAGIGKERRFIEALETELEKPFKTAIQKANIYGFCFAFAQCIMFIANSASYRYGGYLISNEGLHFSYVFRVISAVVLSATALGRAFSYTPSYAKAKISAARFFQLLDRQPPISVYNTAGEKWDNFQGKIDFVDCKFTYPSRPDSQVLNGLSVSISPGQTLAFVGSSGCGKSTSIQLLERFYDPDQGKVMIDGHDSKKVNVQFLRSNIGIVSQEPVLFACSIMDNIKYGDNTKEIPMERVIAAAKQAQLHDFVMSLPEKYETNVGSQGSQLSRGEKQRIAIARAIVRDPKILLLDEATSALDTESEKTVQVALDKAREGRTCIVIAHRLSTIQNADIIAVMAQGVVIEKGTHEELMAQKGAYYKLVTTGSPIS
Sequence of human recombinant LPA1 expressed in CHO cells (Q92633 whole entry): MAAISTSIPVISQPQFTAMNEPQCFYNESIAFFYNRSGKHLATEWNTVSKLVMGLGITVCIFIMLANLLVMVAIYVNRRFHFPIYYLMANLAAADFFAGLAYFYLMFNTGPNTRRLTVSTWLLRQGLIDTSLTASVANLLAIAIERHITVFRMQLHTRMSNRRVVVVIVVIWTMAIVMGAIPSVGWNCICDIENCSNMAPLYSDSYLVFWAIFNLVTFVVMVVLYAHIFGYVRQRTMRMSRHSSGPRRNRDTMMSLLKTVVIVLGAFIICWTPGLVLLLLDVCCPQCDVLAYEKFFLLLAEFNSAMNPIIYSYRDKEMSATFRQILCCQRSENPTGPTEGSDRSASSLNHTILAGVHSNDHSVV

For the molecule `Cc1nc(-c2onc(C)c2NC(=O)O[C@H](C)c2ccccc2Cl)ccc1NC(=O)C1CCCCC1C(=O)O` (single isomer, unassigned) [Example 14], the “BSEP Inhibition at 50 μM” value at BSEP was not above 50%.

In general, IC50 refers to the concentration that inhibits the measured activity by half. A word on the inhibition: it is how much of the control response was suppressed. A high value points to a strong effect. Regarding `Cc1nc(-c2nnn(C)c2NC(=O)O[C@H](C)c2ccccc2F)ccc1NC(=O)[C@H]1CCCC[C@@H]1C(=O)O` [Example 47, (1S,2S)-2-((6-(5-((((R)-1-(2-fluorophenyl)ethoxy)carbonyl)amino)-1-methyl-1H-1,2,3-triazol-4-yl)-2-methylpyridin-3-yl)carbamoyl)cyclohexane-1-carboxylic acid], the IC50 in data set [1] (setting [2]) was less than 50 nM. For the same molecule, the inhibition at 10 min, 50 μM against BSEP was not above 50%.

Turning to `Cc1nc(-c2onc(C)c2NC(=O)O[C@H](C)c2cccnc2Cl)ccc1NC(=O)[C@H]1CCCC[C@@H]1C(=O)O` [Example 11, (1S,2S)-2-((6-(4-((((R)-1-(2-chloropyridin-3-yl)ethoxy)carbonyl)amino)-3-methylisoxazol-5-yl)-2-methylpyridin-3-yl)carbamoyl)cyclohexane-1-carboxylic acid], in data set [1] (setting [2]), the IC50 was 50 to 250 nM. In addition, the inhibition at 10 min, 50 μM against BSEP was not above 50%.

Consider `COc1ccccc1[C@@H](C)OC(=O)Nc1c(C)noc1-c1ccc(NC(=O)[C@H]2CCCC[C@@H]2C(=O)O)cn1` [Example 37, (1S,2S)-2-((6-(4-((((R)-1-(2-methoxyphenyl)ethoxy)carbonyl)amino)-3-methylisoxazol-5-yl)pyridin-3-yl)carbamoyl)cyclohexane-1-carboxylic acid], for which the IC50 in data set [1] (setting [2]) lay in the range of 50 to 250 nM. This molecule also came in with an inhibition at 10 min, 50 μM against BSEP not above 50%.

For `C[C@@H](OC(=O)Nc1ccsc1-c1ccc(NC(=O)C2CCCCC2C(=O)O)cc1)c1ccccc1Cl` (single isomer, unassigned) [Example 8], in data set [1] (setting [2]), the IC50 lay in the range of 250 to 600 nM.

Turning to `C[C@@H](OC(=O)Nc1c(-c2ccc(NC(=O)[C@H]3CCCC[C@@H]3C(=O)O)cc2)nnn1C)c1ccccc1Cl` [Example 23, (1S,2S)-2-((4-(5-((((R)-1-(2-chlorophenyl)ethoxy)carbonyl)amino)-1-methyl-1H-1,2,3-triazol-4-yl)phenyl)carbamoyl)cyclohexane-1-carboxylic acid], the IC50 in data set [1] (setting [2]) was less than 50 nM. The inhibition at 10 min, 50 μM against BSEP is not above 50%.

For `Cc1nc(-c2onc(C)c2NC(=O)OC(C)c2cccnc2F)ccc1NC(=O)[C@H]1CCCC[C@@H]1C(=O)O` (single isomer, unassigned) [Example 20], in data set [1] (setting [2]), the concentration for half-maximal inhibition (IC50) fell in the range of 50 to 250 nM. The inhibition at 10 min, 50 μM on BSEP was not above 50%.

`Cc1nc(-c2onc(C)c2NC(=O)O[C@H](C)c2cccnc2)ccc1NC(=O)[C@H]1CCCC[C@@H]1C(=O)O` [Example 15, (1S,2S)-2-((2-methyl-6-(3-methyl-4-((((R)-1-(pyridin-3-yl)ethoxy)carbonyl)amino)isoxazol-5-yl)pyridin-3-yl)carbamoyl)cyclohexane-1-carboxylic acid]: the half-maximal inhibitory concentration (IC50) in data set [1] (setting [2]) lay within 50 to 250 nM. The inhibition at 10 min, 50 μM against BSEP is not above 50%.

Take `C[C@@H](OC(=O)Nc1c(-c2ccc(NC(=O)C3CCCCC3C(=O)O)cc2)cnn1C)c1ccccc1Cl` (single isomer, unassigned) [Example 4]: the IC50 in data set [1] (setting [2]) was less than 50 nM.

With `C[C@@H](OC(=O)Nc1ccsc1-c1ccc(NC(=O)[C@H]2CCCC[C@@H]2C(=O)O)cn1)c1ccccc1Cl` [Example 21, (1S,2S)-2-((6-(3-((((R)-1-(2-chlorophenyl)ethoxy)carbonyl)amino)thiophen-2-yl)pyridin-3-yl)carbamoyl)cyclohexane-1-carboxylic acid], the IC50 in data set [1] (setting [2]) lay within 250 to 600 nM.

Consider `Cc1nc(-c2onc(C)c2NC(=O)OC(C)c2cccnc2F)ccc1NC(=O)[C@H]1CCCC[C@@H]1C(=O)O` (stereo partly drawn) [Example 19, (1S,2S)-2-((6-(4-(((1-(2-fluoropyridin-3-yl)ethoxy)carbonyl)amino)-3-methylisoxazol-5-yl)-2-methylpyridin-3-yl)carbamoyl)cyclohexane-1-carboxylic acid], for which the IC50 in data set [1] (setting [2]) lay within 50 to 250 nM.

For `Cc1noc(-c2ccc(NC(=O)[C@H]3CCCC[C@@H]3C(=O)O)cn2)c1NC(=O)OC(C)c1cccnc1F` (stereo partly drawn) [Example 17, (1S,2S)-2-((6-(4-(((1-(2-fluoropyridin-3-yl)ethoxy)carbonyl)amino)-3-methylisoxazol-5-yl)pyridin-3-yl)carbamoyl)cyclohexane-1-carboxylic acid], the IC50 in data set [1] (setting [2]) was 50 to 250 nM. On BSEP, this molecule displayed an inhibition at 10 min, 50 μM not above 50%.

In the case of `Cc1noc(-c2ccc(NC(=O)[C@H]3CCCC[C@@H]3C(=O)O)cn2)c1NC(=O)O[C@H](C)c1ccccc1` [Example 41, (1S,2S)-2-((6-(3-methyl-4-((((R)-1-phenylethoxy)carbonyl)amino)isoxazol-5-yl)pyridin-3-yl)carbamoyl)cyclohexane-1-carboxylic acid], the IC50 in data set [1] (setting [2]) was less than 50 nM. Also, the inhibition at 10 min, 50 μM against BSEP was not above 50%.

`Cc1noc(-c2ncc(NC(=O)[C@H]3CCCC[C@@H]3C(=O)O)cc2F)c1NC(=O)O[C@H](C)c1ccccc1Cl` [Example 31, (1S,2S)-2-((6-(4-((((R)-1-(2-chlorophenyl)ethoxy)carbonyl)amino)-3-methylisoxazol-5-yl)-5-fluoropyridin-3-yl)carbamoyl)cyclohexane-1-carboxylic acid]: the IC50 in data set [1] (setting [2]) is less than 50 nM. The inhibition at 10 min, 50 μM at BSEP is not above 50%.

In the case of `Cc1noc(-c2ccc(N(C)C(=O)[C@H]3CCCC[C@@H]3C(=O)O)cn2)c1NC(=O)O[C@H](C)c1cccnc1Cl` [Example 30, (1S,2S)-2-((6-(4-((((R)-1-(2-chloropyridin-3-yl)ethoxy)carbonyl)amino)-3-methylisoxazol-5-yl)pyridin-3-yl)(methyl)carbamoyl)cyclohexane-1-carboxylic acid], the IC50 in data set [1] (setting [2]) was in the range of 250 to 600 nM. The molecule also returned an inhibition at 10 min, 50 μM against BSEP not above 50%.

Take `C[C@@H](OC(=O)Nc1ccsc1-c1ccc(NC(=O)C2CCCCC2C(=O)O)cc1)c1ccccc1Cl` (stereo partly drawn) [Example 6, Cis-2-((4-(3-((((R)-1-(2-chlorophenyl)ethoxy)carbonyl)amino)thiophen-2-yl)phenyl)carbamoyl)cyclohexane-1-carboxylic acid]: the concentration for half-maximal inhibition (IC50) in data set [1] (setting [2]) was less than 50 nM.

For `Cc1noc(-c2ccc(NC(=O)C3CCCCC3C(=O)O)cc2)c1NC(=O)O[C@H](C)c1cccnc1` (stereo partly drawn) [comparative Example B, 2-((4-(3-methyl-4-((((R)-1-(pyridin-3-yl)ethoxy)carbonyl)amino)isoxazol-5-yl)phenyl)carbamoyl)cyclohexane-1-carboxylic acid, reference compound], the IC50 in data set [1] (comparative compound, read-out: IC50 on receptor LPA1) is more than 1000 nM.

As for `C[C@@H](OC(=O)Nc1c(-c2ccc(NC(=O)C3CCCCC3C(=O)O)cc2)cnn1C)c1ccccc1Cl` (single isomer, unassigned) [Example 5], the IC50 in data set [1] (setting [2]) was 250 to 600 nM.

In the case of `Cc1nc(-c2onc(C)c2NC(=O)O[C@H](C)c2cccnc2)ccc1NC(=O)C1CCCCC1C(=O)O` (stereo partly drawn) [Example 33, Cis-2-((2-methyl-6-(3-methyl-4-((((R)-1-(pyridin-3-yl)ethoxy)carbonyl)amino)isoxazol-5-yl)pyridin-3-yl)carbamoyl)cyclohexane-1-carboxylic acid], the IC50 in data set [1] (setting [2]) lay in the range of 250 to 600 nM.
